Here are results for 34 compounds from ChEMBL document CHEMBL3853265 (Medchemcomm, 2016).

Bounds are passed on as bounds.

Data set [1] concerns the target CYP2C9 (Homo sapiens, UniProt P11712). Nature of the data set: Inhibition of CYP2C9 (unknown origin) at 3 uM relative to control. Type of data set: ADME.
Data set [2] can be described thus: Dissociation constant, pKa of the compound. Type of data set: physicochemical.
For data set [3], the target named is T1, Solute carrier family 22 member 12 (Homo sapiens, UniProt Q96S37).
T1 sequence (Q96S37 whole entry): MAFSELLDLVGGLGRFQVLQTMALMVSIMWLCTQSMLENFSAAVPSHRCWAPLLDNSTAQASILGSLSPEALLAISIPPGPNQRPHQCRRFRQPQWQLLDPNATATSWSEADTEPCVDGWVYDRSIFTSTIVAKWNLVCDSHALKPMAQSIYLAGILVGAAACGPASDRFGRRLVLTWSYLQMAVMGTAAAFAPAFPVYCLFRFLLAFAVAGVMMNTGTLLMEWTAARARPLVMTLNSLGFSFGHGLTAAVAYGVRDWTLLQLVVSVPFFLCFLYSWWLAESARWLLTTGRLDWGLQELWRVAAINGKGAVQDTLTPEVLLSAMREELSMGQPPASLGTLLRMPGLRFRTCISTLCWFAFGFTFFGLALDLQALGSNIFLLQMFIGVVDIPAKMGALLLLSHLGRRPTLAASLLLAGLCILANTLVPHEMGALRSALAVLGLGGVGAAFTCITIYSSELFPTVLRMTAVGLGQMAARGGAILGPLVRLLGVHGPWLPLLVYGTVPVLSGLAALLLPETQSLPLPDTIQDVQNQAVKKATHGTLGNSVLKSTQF
Nature of the data set: Inhibition of human C-terminal eGFP-tagged URAT1 long isoform expressed in CHO cells assessed as decrease in [14C]-uric acid uptake preincubated for 15 mins followed by [14C]-uric acid addition and incubated in dark for 3 hrs by scintillation counting method. Type of data set: cell-based.

The nature of data set [4]: Intrinsic clearance in human liver microsomes. Type of data set: ADME. To be noted: read-out: CLH.
Data set [5] can be described thus: Octanol-water partition co-efficient, log D of the compound by shake flask method. In kind it is physicochemical.

Chain of CYP2C9 (P11712 whole entry): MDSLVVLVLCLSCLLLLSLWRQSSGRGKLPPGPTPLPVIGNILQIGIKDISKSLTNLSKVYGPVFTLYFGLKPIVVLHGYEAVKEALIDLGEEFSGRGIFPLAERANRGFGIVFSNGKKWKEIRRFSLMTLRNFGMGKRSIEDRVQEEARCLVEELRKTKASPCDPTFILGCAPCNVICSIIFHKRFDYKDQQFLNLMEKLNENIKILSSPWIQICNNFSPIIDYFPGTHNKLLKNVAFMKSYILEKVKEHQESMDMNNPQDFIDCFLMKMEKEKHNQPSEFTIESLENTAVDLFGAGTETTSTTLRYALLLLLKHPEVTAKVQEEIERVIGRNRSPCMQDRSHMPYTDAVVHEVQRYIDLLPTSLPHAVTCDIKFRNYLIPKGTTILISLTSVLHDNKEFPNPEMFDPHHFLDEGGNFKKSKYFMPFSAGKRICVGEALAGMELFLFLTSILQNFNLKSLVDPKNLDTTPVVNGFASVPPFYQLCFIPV

A word on the inhibition: it is how much of the control response was suppressed. Higher therefore signals strong suppression. A word on the pKa: it is the pH at which an ionisable group is half protonated. A lower pKa goes with a stronger acid or weaker base. One may read the IC50 as the concentration at which inhibition is half-maximal. By logD is commonly meant lipophilicity at a set pH, counting ionised and neutral species. Lower therefore signals a more hydrophilic compound. In the case of `N#Cc1ccc(NS(=O)(=O)c2ccccc2C(F)(F)F)cc1Cl`, 3 µM produced 92% inhibition in data set [1]. The compound also came in with a pKa in data set [2] of 5.1. Besides, the IC50 in data set [3] was found to be 18 nM. Besides, the microsomal CLint in data set [4] worked out at 11 µL/min/mg. Besides, in data set [5], the pH-dependent lipophilicity (logD) is 1.8.

Consider `Cc1cncc(NS(=O)(=O)c2ccccc2C(F)(F)F)c1`, for which the concentration for half-maximal inhibition (IC50) in data set [3] worked out at 185 nM.

As to `N#Cc1cc(NS(=O)(=O)c2ccccc2OC(F)(F)F)ccc1Cl`, in data set [3], the IC50 came out at 20 nM.

As for `N#Cc1ccc(NS(=O)(=O)c2ccccc2C#N)cc1Cl`, the IC50 in data set [3] was found to be 156 nM.

Consider `N#Cc1cc(NS(=O)(=O)c2ccccc2C#N)ccc1Cl`, for which the IC50 in data set [3] was determined as 127 nM.

With `N#Cc1ccc(NS(=O)(=O)c2ccccc2C(F)(F)F)cc1`, in data set [3], the IC50 was found to be 119 nM.

In data set [1], `N#Cc1cccc(NS(=O)(=O)c2ccccc2C(F)(F)F)c1` registered an inhibition at 3 µM of 28%. Moreover, the IC50 in data set [3] came out at 166 nM. In data set [4], the microsomal CLint is less than 8 µL/min/mg. For the same compound, in data set [5], the logD was 1.9.

Turning to `COc1ccc(NS(=O)(=O)c2ccccc2C(F)(F)F)cn1`, the IC50 in data set [3] is 1170 nM.

In the case of `COc1ncccc1NS(=O)(=O)c1ccccc1C(F)(F)F`, the IC50 in data set [3] turned out to be 3920 nM.

In data set [1], `O=S(=O)(Nc1cnc2ccccc2c1)c1ccccc1C(F)(F)F` registered an inhibition at 3 µM of 39%. Moreover, the IC50 in data set [3] worked out at 7 nM. Further, the microsomal CLint in data set [4] turned out to be 153 µL/min/mg. The same compound displayed a logD in data set [5] of 2.5.

`N#Cc1ccc(NS(=O)(=O)c2ccccc2C(F)(F)F)c(Cl)c1` returned an inhibition at 3 µM in data set [1] of 82%. Further, the half-inhibitory concentration (IC50) in data set [3] came out at 39 nM. In addition, the microsomal CLint in data set [4] is 14 µL/min/mg. Further, in data set [5], the logD came to 1.1.

In data set [1], `N#Cc1ccccc1NS(=O)(=O)c1ccccc1C(F)(F)F` came in with an inhibition at 3 µM of 11%. For the same compound, the IC50 in data set [3] came to 616 nM. The microsomal CLint in data set [4] was 19 µL/min/mg. The compound also gave a logD in data set [5] of 0.8.

In the case of `N#Cc1ccc(NS(=O)(=O)c2ccccc2Cl)cc1Cl`, in data set [3], the IC50 was found to be 81 nM.

As to `O=S(=O)(Nc1cccc(OC(F)(F)F)c1)c1ccccc1C(F)(F)F`, in data set [1], the inhibition at 3 µM was 81%. In data set [3], the IC50 was 1480 nM. The microsomal CLint in data set [4] was found to be 55 µL/min/mg. This compound also came in with a logD in data set [5] of 3.9.

In turn, `N#Cc1c(Cl)cccc1NS(=O)(=O)c1ccccc1C(F)(F)F` came in with an inhibition at 3 µM in data set [1] of 86%. Further, the concentration for half-maximal inhibition (IC50) in data set [3] was 23 nM. Also, the microsomal CLint in data set [4] came out at 30 µL/min/mg. In data set [5], the logD was 1.

On to `N#Cc1cc(NS(=O)(=O)c2ccccc2Cl)ccc1Cl`, for which the IC50 in data set [3] turned out to be 81 nM.

For the compound `N#Cc1ccc(Cl)cc1NS(=O)(=O)c1ccccc1C(F)(F)F`, in data set [3], the IC50 was 187 nM.

On to `O=S(=O)(Nc1ccc(F)c(F)c1)c1ccccc1C(F)(F)F`, for which the IC50 in data set [3] was determined as 1970 nM.

`Cc1ccccc1S(=O)(=O)Nc1ccc(C#N)c(Cl)c1`: the IC50 in data set [3] was determined as 89 nM.

`N#Cc1cc(NS(=O)(=O)c2ccccc2C(F)(F)F)ccc1Cl` registered an inhibition at 3 µM in data set [1] of 76%. Besides, the pKa in data set [2] was 5.8. The IC50 in data set [3] is 18 nM. Also, in data set [4], the microsomal CLint was less than 12 µL/min/mg. Besides, in data set [5], the logD worked out at 2.3.

Regarding `O=S(=O)(Nc1ccccc1OC(F)F)c1ccccc1C(F)(F)F`, the IC50 in data set [3] came to 1970 nM.

On to `N#Cc1cc(Cl)ccc1NS(=O)(=O)c1ccccc1C(F)(F)F`, for which the IC50 in data set [3] is 111 nM.

`COc1cncc(NS(=O)(=O)c2ccccc2C(F)(F)F)c1`: the inhibition at 3 µM in data set [1] stood at 18%. Besides, the IC50 in data set [3] was determined as 89 nM. For the same compound, in data set [4], the microsomal CLint was less than 8 µL/min/mg. Moreover, the logD in data set [5] was determined as 1.3.

Regarding `N#Cc1cc(NS(=O)(=O)c2ccccc2C(F)(F)F)ccc1C(F)(F)F`, in data set [1], the inhibition at 3 µM turned out to be 86%. The pKa in data set [2] was 5.1. Further, the IC50 in data set [3] was found to be 32 nM. For the same compound, in data set [4], the microsomal CLint was found to be 18 µL/min/mg. For the same compound, the logD in data set [5] turned out to be 2.

Turning to `N#Cc1ccc(Cl)c(NS(=O)(=O)c2ccccc2C(F)(F)F)c1`, the 50% inhibitory concentration (IC50) in data set [3] came out at 71 nM.

As to `COc1ccncc1NS(=O)(=O)c1ccccc1C(F)(F)F`, the IC50 in data set [3] is greater than 10000 nM.

In the case of `O=S(=O)(Nc1ccc(F)c(C(F)(F)F)c1)c1ccccc1C(F)(F)F`, in data set [3], the IC50 was 484 nM.

On to `COc1ccccc1S(=O)(=O)Nc1ccc(C#N)c(Cl)c1`, for which, in data set [3], the IC50 is 199 nM.

On to `Cc1ccncc1NS(=O)(=O)c1ccccc1C(F)(F)F`, for which the concentration for half-maximal inhibition (IC50) in data set [3] is greater than 10000 nM.

The compound `N#Cc1ccc(NS(=O)(=O)c2ccccc2C(F)(F)F)cc1C(F)(F)F` yielded an inhibition at 3 µM in data set [1] of 61%. The IC50 in data set [3] turned out to be 29 nM. Also, the microsomal CLint in data set [4] was less than 12 µL/min/mg. The compound also returned a logD in data set [5] of 1.8.

On to `Cc1ccccc1S(=O)(=O)Nc1ccc(Cl)c(C#N)c1`, for which, in data set [3], the IC50 stood at 183 nM.

`O=S(=O)(Nc1ccccc1F)c1ccccc1C(F)(F)F` came in with an inhibition at 3 µM in data set [1] of 15%. Moreover, the IC50 in data set [3] turned out to be 3610 nM. In data set [5], this compound registered a logD of 2.4.

In data set [1], `O=S(=O)(Nc1cncc(Br)c1)c1ccccc1C(F)(F)F` gave an inhibition at 3 µM of 38%. In addition, in data set [2], the pKa stood at 5.3. The IC50 in data set [3] was found to be 35 nM. In addition, the microsomal CLint in data set [4] was 14 µL/min/mg. Further, the logD in data set [5] came to 1.6.

Turning to `Cc1ccc(NS(=O)(=O)c2ccccc2C(F)(F)F)cn1`, the IC50 in data set [3] was found to be 1030 nM.
